Assay results: PubChem BioAssay AID2060884 (Molecular Pharmacology Branch, DTP, NCI, 2025)
Values joined by “and” are separate entries in the source; they are usually repeats but may differ in a detail not shown here. Equal entries are not always repeated. Each block holds one compound with its values, some of them ahead of it.

System: NCI-H929 complex spheroids, viability % test/control
Experiment: Anticancer human tumor NCI-H929 cell line growth inhibition [RAS];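 further: compound exposure lasted seven days before viability was read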
Conditions: for viability, T/C: stronger effect = lower value
Text: RAS pathway inhibitors in Combinations in Complex Spheroids
A high-throughput screen of multi-cell type tumor spheroids was designed to identify active combinations of RAS pathway inhibitors and targeted small molecules. Complex spheroids include a stromal component modeled by human endothelial cells (HUVEC) and fibroblasts modeled by human mesenchymal stem cells (MSCs). The concentration ranges selected for each drug and investigational agent were based upon clinically achievable concentrations if the clinical Cmax of the agent was known.
Compounds. The drugs and investigational agents: abemaciclib (NSC768073), cobimetinib (NSC768068), divarasib (GDC6063, NSC841802), docetaxel (NSC628503), GDC-1971 (RLY-1971, NSC841576), gemcitabine (NSC613327), inavolisib (NSC800729), ipatasertib (NSC767898), KB-0742 (NSC834161), MRTX-1133 (NSC836407), osimertinib (NSC779217), RMC-4630 (NSC839698), RMC-6236 (NSC851965), RMC-6291 (NSC852671), Ro-3306 (NSC812927), sapanisertib (NSC764658), SN-38 (NSC673596), staurosporine (NSC755774), SY5609 (NSC837396), and tovorafenib (DAY101, NSC766906), were obtained from the National Cancer Institute (NCI) Developmental Therapeutics Program Chemical Repository. The FDA-approved anticancer drug set is available from the NCI Developmental Therapeutics Program. […] The stock solutions were prepared in dimethyl sulfoxide (DMSO, Sigma-Aldrich, St. Louis, MO, cat. D2650) at 800-fold the tested concentration and stored at -70 degrees C prior to their use. All drugs and investigational agents were tested over a range starting from a high concentration at or near the clinical Cmax and decreasing in half-log increments. If the clinical Cmax for an agent had not been determined, the highest concentration tested was 10 microM.
Cell Culture. All cells were maintained in an incubator at 37 degrees C and 5% CO2 with 95% humidity. The PDC lines were cultured according to standard operating procedures established by the NCI PDMR. All PDCs were thawed and cultured in Matrigel-coated flasks prepared with a working solution of 1X Ham's F-12 nutrient mix, without supplementation (Invitrogen, Waltham, MA, cat. 11765054), 100 U/mL penicillin-streptomycin (Invitrogen, cat. 15140122), and 2.5% Matrigel (Corning Inc., Corning, NY, cat. 354248) for the first three passages. The 362531-283-R-J2-PDC and 782815-120-R-J1-PDC lines were cultured in 6C/Colon 1B media, which includes advanced DMEM/F-12 (Thermo Fisher Scientific, cat. 12634028), 10 mM HEPES (Thermo Fisher Scientific, cat. 15630080), 1X GlutaMAX supplement (Thermo Fisher Scientific, cat. 35050061), 0.1 mg/mL primocin (InvivoGen, San Diego, CA, cat. ant-pm-2), 10% defined fetal bovine serum, heat inactivated (HyClone Laboratories Inc., Logan, UT, cat. SH30070.03HI), 50% L-WRN conditioned media (ATCC, cat. CRL-3276), 1.25 mM N-Acetyl-L-cysteine (Sigma-Aldrich, cat. A9165), 10 mM nicotinamide (Sigma-Aldrich, cat. N0636), 1X B-27 supplement (Thermo Fisher Scientific, cat. 17504044), 1X N-2 supplement (Thermo Fisher Scientific, cat. 17502048), 50 ng/mL human EGF (Thermo Fisher Scientific, cat. PHG0311), and 10 microM Y-27632 dihydrochloride (Tocris Bioscience, cat. 1254). The K12877-001-R-J1-PDC line was cultured in 6I media, which includes all 6C/Colon 1B media plus 10 ng/mL human FGF-10 (PeproTech, cat. 100-26), 1 ng/mL human FGF-2 (PeproTech, cat. 100-18B), 1 µM prostaglandin E2 (Tocris Bioscience, cat. 2296), […] hydrocortisone (Sigma-Aldrich, cat. H4001), and […] bovine insulin (Sigma-Aldrich, cat. I6634). The K86415-001-R-J1-PDC line was cultured in 6D media, which includes all 6C/Colon 1B media components minus the L-WRN conditioned media. The 485176-168-R4-J1-PDC was cultured in PANC media, which includes all 6C/Colon 1B media plus 100 ng/mL human FGF-10 (PeproTech, cat. 100-26), 500 nM SB-431542 (Selleckchem, cat. S1067), and 10 nM gastrin (Tocris Bioscience, cat. 3006). […]

- IC50 (curve of first compound, second compound 0.0316 µM): > 10 µM
- IC50 (curve of first compound, second compound 0.1 µM): > 10 µM
- IC50 (curve of first compound, second compound 0.316 µM): > 10 µM
- IC50 (curve of first compound, second compound 1 µM): > 10 µM
- IC50 (curve of first compound, second compound 3.16 µM): > 10 µM
- IC50 (curve of first compound, second compound 10 µM): > 10 µM
SMILES: Cc1nc(N2CCC3(CC2)COC(C)C3N)c(CO)nc1Sc1ccnc(N)c1Cl (centres undefined) + C#Cc1c(F)ccc2cc(O)cc(-c3ncc4c(N5CC6CCC(C5)N6)nc(OCC56CCCN5CC(F)C6)nc4c3F)c12
- viability, T/C (second compound 0.0316 µM, first compound 0.0316 µM): 101%
- viability, T/C (second compound 0.0316 µM, first compound 0.1 µM): 95.1%
- viability, T/C (second compound 0.0316 µM, first compound 0.316 µM): 98%
- viability, T/C (second compound 0.0316 µM, first compound 1 µM): 98.7%
- viability, T/C (second compound 0.0316 µM, first compound 3.16 µM): 98.4%
- viability, T/C (second compound 0.0316 µM, first compound 10 µM): 99.5%
- viability, T/C (second compound 0.1 µM, first compound 0.0316 µM): 97.3%
- viability, T/C (second compound 0.1 µM, first compound 0.1 µM): 97.6%
- viability, T/C (second compound 0.1 µM, first compound 0.316 µM): 95.3%
- viability, T/C (second compound 0.1 µM, first compound 1 µM): 99%
- viability, T/C (second compound 0.1 µM, first compound 3.16 µM): 99%
- viability, T/C (second compound 0.1 µM, first compound 10 µM): 107%
- viability, T/C (second compound 0.316 µM, first compound 0.0316 µM): 96%
- viability, T/C (second compound 0.316 µM, first compound 0.1 µM): 97.3%
- viability, T/C (second compound 0.316 µM, first compound 0.316 µM): 99%
- viability, T/C (second compound 0.316 µM, first compound 1 µM): 101%
- viability, T/C (second compound 0.316 µM, first compound 3.16 µM): 101%
- viability, T/C (second compound 0.316 µM, first compound 10 µM): 102%
- viability, T/C (second compound 1 µM, first compound 0.0316 µM): 93.4%
- viability, T/C (second compound 1 µM, first compound 0.1 µM): 102%
- viability, T/C (second compound 1 µM, first compound 0.316 µM): 102%
- viability, T/C (second compound 1 µM, first compound 1 µM): 100%
- viability, T/C (second compound 1 µM, first compound 3.16 µM): 103%
- viability, T/C (second compound 1 µM, first compound 10 µM): 103%
- viability, T/C (second compound 3.16 µM, first compound 0.0316 µM): 103%
- viability, T/C (second compound 3.16 µM, first compound 0.1 µM): 99.8%
- viability, T/C (second compound 3.16 µM, first compound 0.316 µM): 99.5%
- viability, T/C (second compound 3.16 µM, first compound 1 µM): 101%
- viability, T/C (second compound 3.16 µM, first compound 3.16 µM): 102%
- viability, T/C (second compound 3.16 µM, first compound 10 µM): 104%
- viability, T/C (second compound 10 µM, first compound 0.0316 µM): 99.9%
- viability, T/C (second compound 10 µM, first compound 0.1 µM): 104%
- viability, T/C (second compound 10 µM, first compound 0.316 µM): 106%
- viability, T/C (second compound 10 µM, first compound 1 µM): 103%
- viability, T/C (second compound 10 µM, first compound 3.16 µM): 103%
- viability, T/C (second compound 10 µM, first compound 10 µM): 85.6%

- IC50 (curve of compound): > 1 µM
SMILES: C=CC(=O)Nc1cc(Nc2nccc(-c3cn(C)c4ccccc34)n2)c(OC)cc1N(C)CCN(C)C
- viability, T/C (compound 0.00316 µM): 103% (2×) and 109% and 105%
- viability, T/C (compound 0.01 µM): 99.4% [middle of 4 runs]
- viability, T/C (compound 0.0316 µM): 107% [middle of 4 runs]
- viability, T/C (compound 0.1 µM): 99% [middle of 4 runs]
- viability, T/C (compound 0.316 µM): 105% [middle of 4 runs]
- viability, T/C (compound 1 µM): 105% [middle of 4 runs]
